# Results from US20070093549A1, “Methods for preparation of ladostigil tartrate crystalline form A1” (priority 2005, published 2007).
# Columns and labels:
# [1] = system: animal models of Alzheimer's disease; settings: background statement with literature references; cited from earlier work
# [2] = Exposure of form A1 to various humidity conditions (TGA and crystal form); assay type: physicochemical
# Method: (§1) X-Ray powder diffraction data were obtained by a SCINTAG powder X-Ray diffractometer model X'TRA equipped with a solid state detector. Copper radiation of 1.5418 Å was used. A round aluminum sample holder with round zero background quartz plate, with cavity of 25 (diameter)*0.5 (depth) mm was used.
# TGA analysis was done using a Mettler M3 meter. The weight of the samples was about 10 mg. The samples were scanned at a rate of 10° C./min from 25° C. to 200° C. The oven was constantly purged with nitrogen gas at a flow rate of 40 ml/min. Standard 70 μl alumina crucibles covered by lids with 1 hole were used.
# Ladostigil tartrate form A1 was exposed to various humidity conditions at room temperature for 14 days. TGA was performed, and crystal form was analyzed.
# [3] = Effect of micronization, pressing and grinding (XRD); assay type: physicochemical; settings: pressing 1 minute at 100 metric tons, by XRD
# Method: as §1
# The effects of micronization, pressing (1 minute at 100 metric tons) and grinding were determined by XRD and the following results were obtained: […]
# [4] = RH 100%, room temperature, 14 days
Molecule,efficacy in animal models of Alzheimer's disease [1],"TGA ([2]; RH 60%, room temperature, 14 days)","TGA ([2]; RH 80%, room temperature, 14 days)","Resulting form [2, 4]","TGA [2, 4]",water content change ([2]; after exposure to 100% RH for 14 days),hygroscopicity ([2]; concluded from humidity exposure results),crystallinity after pressing [3]
"C#CCN[C@@H]1CCc2ccc(OC(=O)N(C)CC)cc21 [Ladostigil, ethyl-methyl-carbamic acid (R)-3-prop-2-ynylamino-indan-5-yl ester]",effective,–,–,–,–,–,–,–
"carbamic acid, ethylmethyl-, (3R)-2,3-dihydro-3-(2-propynylamino)-1H-inden-5-yl ester, (2R,3R)-2,3-dihydroxybutanedioate (2:1) [Ladostigil tartrate form A1]",–,0.2,0.1,transformed to a mixture of Form A and A1,0.1,did not change significantly,neither Form A nor Form A1 is hygroscopic,lose some extent of crystallinity
